In patent publication US8013163B2 (Astex Therapeutics Limited, priority 2005, dated 2011):
Counter-ions that a name gives are not always drawn.

Legend:
[1] = test system: malignant cells from B-cell chronic lymphocytic leukemia (B-CLL); conditions: in vitro; cited from earlier work
[2] = Solubility of the mesylate salt in aqueous solution at pH 1 to 11 (UV-Vis assay); type: physicochemical
Method: Solutions were prepared by titrating standard hydrochloric acid with dilute sodium hydroxide solution to a desired pH. […] These solutions were then used to assess the solubility of 4-(2,6-dichlorobenzoylamino)-1/i-pyrazole-3-carboxylic acid piperidin-4-ylamide methanesulphonate.
In each experiment, 150 mg of the methanesulphonate salt was weighed into a 5 ml clear vial and 3-4 ml of a solution of a given pH was added. […] In each case, the solution was then filtered through a 0.22 μm PVDF filter, the pH of the clear solution obtained was recorded, and the solution was assayed for methanesulphonate salt content using a UV-Vis spectrophotometer and standard solutions of the salt.

[3] = Solubility of the mesylate salt in buffered solutions (HPLC assay); type: physicochemical; conditions: acetate buffer, pH 4.6, aqueous buffer, thermodynamic from solid
Method: An investigation into the solubility of the mesylate salt of Example 1 in various buffering systems was carried out at ambient temperature and at 4° C. In a first set of experiments, the buffers selected were 200 mM succinate pH 5.5, citrate pH 5.5, and Tris/maleate pH 5.5, 6.5 and 7.5. A second set of buffers utilised included a 200 mM acetate pH 4.6, glycine/methanesulphonic acid pH 4.6 and glycine pH 5.5.
This buffer was prepared by dissolving 4.44 g sodium acetate in 200 ml water. A volume (50 ml) of this solution was titrated with 0.20 M acetic acid solution ([…] in 200 ml water) and made up to 200 ml with water. A 0.20 M acetate buffer solution of pH 4.6 was prepared.
With each pH and buffer system, two experiments were performed, one at ambient temperature and one at 4° C. In each experiment, to 4.0 ml buffer solution was added a nominal 220 mg of the mesylate salt and the solution mixture was stirred. The stirring was stopped after 3 hours, the solution filtered through a PVDF 0.22 μm membrane filter, diluted in sample diluent and assayed for mesylate salt content by HPLC. Throughout the experiments, the mesylate salt content of each sample was calculated using single point calibration each time.

[4] = Stability of acetate buffered salt solution (autoclaving, heating, freeze-thaw); type: physicochemical
Method: Autoclaving at 121° C. for 15 minutes, followed by heating the solution further at 40° C., 55° C. or 75° C. for 10-12 days, were carried out on the acetate buffered salt solution.

[5] = Stability trial of methanesulphonate salt at 40° C./75% relative humidity for six months; type: physicochemical
Method: Samples of the methanesulphonate salt of Example 1 were stored in sealed bags inside a sealed container at a temperature of 40° C. and in an atmosphere of 75% relative humidity for a period of six months. At periods of 1 month, 3 months and 6 months, various tests were carried out to determine whether any changes to the purity or physical state of the salt had occurred. The tests were as follows:
(a) Visual examination of the colour and physical appearance of the salt.
(b) Fourier Transform Infra Red (FTIR) spectroscopy—comparison with reference standard spectrum.
(c) Determination of melting point by differential scanning calorimetry (DSC).
(d) Determination of water content by a coulometric method using the coulometric reagent AKX.
(e) Analysis of impurities by HPLC.

[6] = Gravimetric Vapour Sorption (GVS) study; type: physicochemical
Method: (i) Gravimetric Vapour Sorption (GVS) studies were carried out to investigate the behaviour of the mesylate salt in conditions of varying humidity. The mesylate salt used in the studies was prepared from the hydrochloride salt (see Example 11) by the following method.
Samples of the mesylate salt produced by the method described above were run on a Hiden IGASorp moisture sorption analyser running CFRSorp software. The sample sizes were typically 10 mg. Moisture adsorption-desorption isotherms were performed as set out in the following table:
A double cycle was run using a sample of 12.92 mg of the mesylate salt. […] However, provided that the salt is not exposed to relative humidities of more than 80%, the water uptake is less than 2.6% w/w. Importantly, water which was taken up during the adsorption stage was lost during the desorption state indicating the uptake of water is a surface effect.

[7] = Exposure at 40° C./approximately 75% relative humidity with XRPD and HPLC analysis; type: physicochemical; conditions: approximately 75% relative humidity
Method: (ii) In a separate test, approximately 10 mg of the mesylate salt as prepared above was pressed flat onto a glass slide to achieve a high surface area and placed in a dessicator containing a saturated aqueous solution of sodium chloride. This in turn was placed in an incubator held at 40° C. to provide an atmosphere of approximately 75% relative humidity. The sample was removed on 8 and 18 days and the XRPD profiles of the sample at these times were compared to the XRPD profile of the salt prior to commencement of the test.

HCT-1 16 cells = experiment: Anti-proliferative activity (Alamar Blue assay); type: cell-based; conditions: Homo sapiens, HCT-116, 72 hours
Method: The anti-proliferative activities of a compound can be determined by measuring the ability of the compound to inhibition of cell growth in a number of cell lines. Inhibition of cell growth is measured using the Alamar Blue assay (Nociari, M. M, Shalev, A., Benias, P., Russo, C. Journal of Immunological Methods 1998, 213, 157-167). The method is based on the ability of viable cells to reduce resazurin to its fluorescent product resorufin. For each proliferation assay cells are plated onto 96 well plates and allowed to recover for 16 hours prior to the addition of inhibitor compounds for a further 72 hours. At the end of the incubation period 10% (v/v) Alamar Blue is added and incubated for a further 6 hours prior to determination of fluorescent product at […]. In the case of the non-proliferating cell assay cells are maintained at confluence for 96 hour prior to the addition of inhibitor compounds for a further 72 hours. The number of viable cells is determined by Alamar Blue assay as before. Cell lines can be obtained from the ECACC (European Collection of cell Cultures).

[8] = 40° C./75% relative humidity, t = 0
[9] = 40° C./75% relative humidity, t = 1 month
[10] = 40° C./75% relative humidity, t = 3 months
[11] = 40° C./75% relative humidity, t = 6 months

CC[C@H](CO)Nc1nc(NCc2ccccc2)c2ncn(C(C)C)c2n1 [CYC 202]
induction of apoptosis [1]: induce in vitro apoptosis

O=C(NC1CCNCC1)c1n[nH]cc1NC(=O)c1c(Cl)cccc1Cl [mesylate salt, 4-(2,6-dichlorobenzoylamino)-1H-pyrazole-3-carboxylic acid piperidin-4-ylamide methanesulphonate]
solubility at 3 h ([2]; aqueous solution, 4 °C, pH 0.26, simulated gastric fluid, thermodynamic from solid, initial pH 0.26, final pH 0.26): 9.85 mg/mL | solubility at 3 h ([2]; aqueous solution, 4 °C, pH 1, simulated gastric fluid, thermodynamic from solid, initial pH 1.00, final pH 1.00): 39.4 mg/mL | solubility at 3 h ([2]; aqueous solution, 4 °C, pH 2.51, aqueous buffer, thermodynamic from solid, initial pH 2.51, final pH 2.51): 41.5 mg/mL | solubility at 3 h ([2]; aqueous solution, 4 °C, pH 4.99, aqueous buffer, thermodynamic from solid, initial pH 4.99, final pH 4.99): 42.4 mg/mL | solubility at 3 h ([2]; aqueous solution, 4 °C, pH 7.34, aqueous buffer, thermodynamic from solid, initial pH 7.34, final pH 7.34): 45.9 mg/mL | solubility at 3 h ([2]; aqueous solution, 4 °C, pH 7.4, aqueous buffer, thermodynamic from solid, initial pH 9.04, final pH 7.40): 30.4 mg/mL | solubility at 3 h ([2]; aqueous solution, 4 °C, pH 7.69, aqueous buffer, thermodynamic from solid, initial pH 7.69, final pH 7.69): 37.9 mg/mL | solubility at 3 h ([2]; aqueous solution, 4 °C, pH 7.9, aqueous buffer, thermodynamic from solid, initial pH 10.97, final pH 7.90): 30.9 mg/mL | solubility at 3 h ([2]; aqueous solution, 4 °C, pH 8.17, aqueous buffer, thermodynamic from solid, initial pH 8.17, final pH 8.17): 43.2 mg/mL | solubility at 3 h ([2]; aqueous solution, pH 0.37, simulated gastric fluid, thermodynamic from solid, ambient temperature, initial pH 0.26, final pH 0.37): 15.7 mg/mL | solubility at 6 days ([2]; aqueous solution, pH 0.504, simulated gastric fluid, thermodynamic from solid, Solution 1 after 6 days in the laboratory, precipitate filtered, pH 0.504 / 0.50): 13.9 mg/mL | solubility at 3 h ([2]; aqueous solution, pH 1.06, simulated gastric fluid, thermodynamic from solid, ambient temperature, initial pH 1.00, final pH 1.06): 40.3 mg/mL | solubility at 3 h ([2]; aqueous solution, pH 3, aqueous buffer, thermodynamic from solid, ambient temperature, initial pH 2.51, final pH 3.00): 44.9 mg/mL | solubility at 3 h ([2]; aqueous solution, pH 6.73, aqueous buffer, thermodynamic from solid, ambient temperature, initial pH 4.99, final pH 6.73): 44.3 mg/mL | solubility at 3 h ([2]; aqueous solution, pH 7.3, aqueous buffer, thermodynamic from solid, ambient temperature, initial pH 7.34, final pH 7.30): 44.5 mg/mL | solubility at 3 h ([2]; aqueous solution, pH 7.4, aqueous buffer, thermodynamic from solid, ambient temperature, initial pH 8.17, final pH 7.40): 44.5 mg/mL | solubility at 3 h ([2]; aqueous solution, pH 7.4, aqueous buffer, thermodynamic from solid, ambient temperature, initial pH 9.04, final pH 7.4): 35.4 mg/mL | solubility at 3 h ([2]; aqueous solution, pH 7.6, aqueous buffer, thermodynamic from solid, ambient temperature, initial pH 10.97, final pH 7.6): 34.6 mg/mL | solubility at 3 h ([2]; aqueous solution, pH 7.9, aqueous buffer, thermodynamic from solid, ambient temperature, initial pH 7.69, final pH 7.90): 42.1 mg/mL | behaviour of solution on standing ([2]; pH>7 and pH<3, ambient temperature): precipitation of the salt was observed on standing | solubility at 3 h ([3]; 4 °C, acetate buffer 200 mM at 4° C., initial pH 4.6, final pH 4.6, read-out: [mesylate salt] solubility): 37.2 mg/mL | solubility at 3 h ([3]; acetate buffer 200 mM at ambient temperature, initial pH 4.6, final pH 4.5, read-out: [Mesylate salt] solubility): 30.7 mg/mL | solubility at 3 h ([3]; acetic acid/sodium acetate buffer, solution pH approximately 4.6, read-out: solubility): ~35 mg/mL | solubility at 3 h ([3]; in acetate buffer, read-out: solubility of the mesylate salt): 32 to 37 mg/mL | precipitation in freeze-thaw stability tests ([4]; acetate buffered salt solution): did not result in precipitation | stability of solution pH and salt in freeze-thaw tests ([4]; acetate buffered salt solution): stable | stability of solution pH and salt ([4]; acetate buffered solution, autoclaving at 121° C. for 15 minutes, then 40° C., 55° C. or 75° C. for 10-12 days): stable | overall stability ([5]; 40° C., 75% relative humidity, six months): good stability | (a) Description [5, 8]: Off-white solid | (b) Identity by FTIR [5, 8]: Conforms to | (c) Melting point by DSC, melting endotherm [5, 8]: 367.7 °C | (d) Water content [5, 8]: <0.1% w/w | (e) Impurities (by HPLC) Total impurities [5, 8]: 0.52% area | Chemical purity [5, 8]: 99.48% area | Impurity RRT 0.812 (by HPLC) [5, 8]: 0.07% area | Impurity RRT 1.196 (by HPLC) [5, 8]: 0.01% area | Impurity RRT 1.226 (by HPLC) [5, 8]: 0.02% area | Impurity RRT 1.303 (by HPLC) [5, 8]: 0.02% area | Impurity RRT 1.318 (by HPLC) [5, 8]: 0.03% area | Impurity RRT 1.484 (by HPLC) [5, 8]: 0.15% area | Impurity RRT 1.526 (by HPLC) [5, 8]: 0.03% area | Impurity RRT 1.680 (by HPLC) [5, 8]: 0.19% area | (a) Description [5, 9]: Off-white solid | (b) Identity by FTIR [5, 9]: Conforms to | (c) Melting point by DSC, melting endotherm [5, 9]: 368.3 °C | (d) Water content [5, 9]: <0.1% w/w | (e) Impurities (by HPLC) Total impurities [5, 9]: 0.49% area | Chemical purity [5, 9]: 99.51% area | Impurity RRT 0.812 (by HPLC) [5, 9]: 0.07% area | Impurity RRT 1.196 (by HPLC) [5, 9]: 0.02% area | Impurity RRT 1.303 (by HPLC) [5, 9]: 0.06% area | Impurity RRT 1.484 (by HPLC) [5, 9]: 0.17% area | Impurity RRT 1.680 (by HPLC) [5, 9]: 0.17% area | (a) Description [5, 10]: Off-white solid | (b) Identity by FTIR [5, 10]: Conforms to | (c) Melting point by DSC, melting endotherm [5, 10]: 375.5 °C | (d) Water content [5, 10]: <0.1% w/w | (e) Impurities (by HPLC) Total impurities [5, 10]: 0.50% area | Chemical purity [5, 10]: 99.50% area | Impurity RRT 0.812 (by HPLC) [5, 10]: 0.06% area | Impurity RRT 1.226 (by HPLC) [5, 10]: 0.02% area | Impurity RRT 1.318 (by HPLC) [5, 10]: 0.04% area | Impurity RRT 1.484 (by HPLC) [5, 10]: 0.17% area | Impurity RRT 1.526 (by HPLC) [5, 10]: 0.04% area | Impurity RRT 1.680 (by HPLC) [5, 10]: 0.17% area | (a) Description [5, 11]: Off-white solid | (b) Identity by FTIR [5, 11]: Conforms to | (c) Melting point by DSC, melting endotherm [5, 11]: 369.1 °C | (d) Water content [5, 11]: <0.1% w/w | (e) Impurities (by HPLC) Total impurities [5, 11]: 0.50% area | Chemical purity [5, 11]: 99.50% area | Impurity RRT 0.812 (by HPLC) [5, 11]: 0.06% area | Impurity RRT 1.226 (by HPLC) [5, 11]: 0.02% area | Impurity RRT 1.318 (by HPLC) [5, 11]: 0.04% area | Impurity RRT 1.484 (by HPLC) [5, 11]: 0.17% area | Impurity RRT 1.526 (by HPLC) [5, 11]: 0.03% area | Impurity RRT 1.680 (by HPLC) [5, 11]: 0.17% area | Impurity RRT 1.682 (by HPLC) [5, 11]: 0.01% area | water uptake (GVS) ([6]; not exposed to relative humidities of more than 80%): less than 2.6 % w/w | water picked up (GVS isotherm) ([6]; over the range 0% relative humidity to 90% relative humidity): approximately 4 % in weight | changes in XRPD profile ([7]; 8 and 18 days): No changes were observed | degradation by HPLC analysis ([7]; up to 18 days): no degradation | IC50 (HCT-1 16 cells): 110 nM
